This is an account of results in PMC10648927, “Examining the activity of cefepime-taniborbactam against Burkholderia cepacia complex and Burkholderia gladioli isolated from cystic fibrosis patients in the United States” (Antimicrobial Agents and Chemotherapy, 2023).

Values after ≈ are worked out from the molar mass of the structure shown.

Holding throughout (design): agar dilution MIC, growth inhibition of clinical Burkholderia isolates
Background: In agar dilution the substance is mixed into plates at graded concentrations.

The subject of one assay is T1, B. ambifaria AU19862.
T1 construct: AU19862
The experiment in a line: microbe, parasite or virus in culture. The following applies: Burkholderia ambifaria, AU19862. Summed up: (§1)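 MICs by agar dilution against Bcc and B. gladioli clinical isolates, interpreted with CLSI breakpoints where available; K. pneumoniae ATCC 700603 (SHV-18) and ATCC BAA-1705 (KPC) served as quality controls.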

For a further assay, the system named is T2, B. multivorans AU28442.
T2 construct: AU28442
The experiment in a line: microbe, parasite or virus in culture. The following applies: Burkholderia multivorans, AU28442. Summed up: as §1

The next assay relates to T3, B. vietnamiensis AU26096.
T3 construct: AU26096
Nature of the assay: microbe, parasite or virus in culture. The following applies: Burkholderia vietnamiensis, AU26096. Summed up: as §1

For the next assay, the system named is T4, B. gladioli AU29541.
T4 construct: AU29541
Nature of the assay: organism not typed. In short, it runs like this:
as §1

The next assay has as its system T5, B. multivorans AU19729.
T5 construct: AU19729
The experiment in a line: microbe, parasite or virus in culture. The following applies: Burkholderia multivorans, AU19729. In short, it runs like this: as §1

In a further assay the test system is T6, B. cepacia AU17630.
T6 construct: AU17630
The experiment in a line: microbe, parasite or virus in culture. The following applies: Burkholderia cepacia, AU17630. Summed up:
as §1

The next assay deals with T7, B. cenocepacia AU20998.
T7 construct: AU20998
Nature of the assay: microbe, parasite or virus in culture. The following applies: Burkholderia cenocepacia, AU20998. Summed up: as §1

For a further assay, the system named is T8, B. multivorans AU11204.
T8 construct: AU11204
The experiment in a line: microbe, parasite or virus in culture. The following applies: Burkholderia multivorans, AU11204. Summed up:
as §1

Another assay relates to T9, B. multivorans AU11358.
T9 construct: AU11358
Nature of the assay: microbe, parasite or virus in culture. The following applies: Burkholderia multivorans, AU11358. Summed up: as §1

A further assay deals with T10, B. vietnamiensis AU3997.
T10 construct: AU3997
The experiment in a line: microbe, parasite or virus in culture. The following applies: Burkholderia vietnamiensis, AU3997. In short, it runs like this: as §1

The test system of a further assay is T11, B. cenocepacia AU24362.
T11 construct: AU24362
The experiment in a line: microbe, parasite or virus in culture. The following applies: Burkholderia cenocepacia, AU24362. Summed up: as §1

In a further assay the test system is T12, B. diffusa AU19637.
T12 construct: AU19637
The experiment in a line: organism not typed. In short, it runs like this: as §1

A further assay concerns T13, B. contaminans AU15669.
T13 construct: AU15669
Nature of the assay: organism not typed. Summed up: as §1

For a further assay, the system named is T14, B. cenocepacia AU19276.
T14 construct: AU19276
The experiment in a line: microbe, parasite or virus in culture. The following applies: Burkholderia cenocepacia, AU19276. In short, it runs like this:
as §1

The next assay has as its system T15, B. cenocepacia AU14381.
T15 construct: AU14381
Nature of the assay: microbe, parasite or virus in culture. The following applies: Burkholderia cenocepacia, AU14381. In short, it runs like this: as §1

Another assay has as its system T16, B. cenocepacia AU8635.
T16 construct: AU8635
The experiment in a line: microbe, parasite or virus in culture. The following applies: Burkholderia cenocepacia, AU8635. Summed up: as §1

The test system of a further assay is T17, B. multivorans AU20929.
T17 construct: AU20929
Nature of the assay: microbe, parasite or virus in culture. The following applies: Burkholderia multivorans, AU20929. In short, it runs like this: as §1

The test system of the next assay is T18, B. multivorans AU13919.
T18 construct: AU13919
Nature of the assay: microbe, parasite or virus in culture. The following applies: Burkholderia multivorans, AU13919. In short, it runs like this: as §1

Assay [1] deals with T19, Burkholderia cepacia complex Bcc Indeterminate AU14915.
T19 construct: AU14915
Nature of the assay: microbe, parasite or virus in culture. The following applies: Burkholderia cepacia. Summed up: as §1

The subject of another assay is T20, B. cepacia AU11420.
T20 construct: AU11420
Nature of the assay: microbe, parasite or virus in culture. The following applies: Burkholderia cepacia, AU11420. In short, it runs like this:
as §1

In another assay the test system is T21, B. contaminans AU21811.
T21 construct: AU21811
Nature of the assay: organism not typed. Summed up: as §1

For the next assay, the system named is T22, B. cepacia AU0329.
T22 construct: AU0329
The experiment in a line: microbe, parasite or virus in culture. The following applies: Burkholderia cepacia, AU0329. In short, it runs like this: as §1

For the compound `CO/N=C(\C(=O)N[C@@H]1C(=O)N2C(C(=O)[O-])=C(C[N+]3(C)CCCC3)CS[C@H]12)c1csc(N)n1` [cefepime], the MIC in the assay with B. ambifaria AU19862 was 16 µg/mL (≈ 33.3 µM); against B. multivorans AU28442 it was over 32 µg/mL; in the assay on B. vietnamiensis AU26096 it was 32 µg/mL (≈ 66.6 µM); in the assay with B. gladioli AU29541, 32 µg/mL (≈ 66.6 µM); in the assay on B. multivorans AU19729 it was over 32 µg/mL; against B. cepacia AU17630, over 32 µg/mL. In addition, the MIC with B. cenocepacia AU20998 was over 32 µg/mL; in the assay on B. multivorans AU11204 it was 4 µg/mL (≈ 8.32 µM); with B. multivorans AU11358, 8 µg/mL (≈ 16.6 µM); with B. vietnamiensis AU3997, 8 µg/mL (≈ 16.6 µM); in the assay on B. cenocepacia AU24362, over 32 µg/mL; in the assay on B. diffusa AU19637, 32 µg/mL (≈ 66.6 µM). Moreover, the MIC is over 32 µg/mL in the assay on B. contaminans AU15669; 8 µg/mL (≈ 16.6 µM) in the assay on B. cenocepacia AU19276; 32 µg/mL (≈ 66.6 µM) against B. cenocepacia AU14381; over 32 µg/mL against B. cenocepacia AU8635; 8 µg/mL (≈ 16.6 µM) against B. multivorans AU20929; 8 µg/mL (≈ 16.6 µM) in the assay on B. multivorans AU13919. Besides, the MIC (in [1]; with B. cepacia AU11420; in the assay with B. contaminans AU21811; in the assay with B. cepacia AU0329) was over 32 µg/mL in each case.
In the case of `C[C@H]1COc2c(N3CCN(C)CC3)c(F)cc3c(=O)c(C(=O)O)cn1c23` [levofloxacin], the MIC was 8 µg/mL (≈ 22.1 µM) in the assay on B. ambifaria AU19862; 16 µg/mL (≈ 44.3 µM) in the assay with B. multivorans AU28442; over 32 µg/mL against B. vietnamiensis AU26096; 8 µg/mL (≈ 22.1 µM) against B. gladioli AU29541; 16 µg/mL (≈ 44.3 µM) in the assay with B. multivorans AU19729; 4 µg/mL (≈ 11.1 µM) in the assay with B. cepacia AU17630. Further, the MIC with B. cenocepacia AU20998 is over 32 µg/mL; with B. multivorans AU11204, 2 µg/mL (≈ 5.53 µM); with B. multivorans AU11358, 2 µg/mL (≈ 5.53 µM); against B. vietnamiensis AU3997, 8 µg/mL (≈ 22.1 µM); against B. cenocepacia AU24362, 8 µg/mL (≈ 22.1 µM); against B. diffusa AU19637, 2 µg/mL (≈ 5.53 µM). The MIC was 8 µg/mL (≈ 22.1 µM) in the assay on B. contaminans AU15669; 0.5 µg/mL (≈ 1.38 µM) against B. cenocepacia AU19276; over 32 µg/mL against B. cenocepacia AU14381; over 32 µg/mL against B. cenocepacia AU8635; 4 µg/mL (≈ 11.1 µM) against B. multivorans AU20929; 2 µg/mL (≈ 5.53 µM) against B. multivorans AU13919. The MIC in assay [1] was 16 µg/mL (≈ 44.3 µM); in the assay with B. cepacia AU11420 it was 4 µg/mL (≈ 11.1 µM); in the assay on B. contaminans AU21811, 8 µg/mL (≈ 22.1 µM); against B. cepacia AU0329, over 32 µg/mL.
For the compound `C[C@@H](O)[C@H]1C(=O)N2C(C(=O)O)=C(S[C@@H]3CN[C@H](C(=O)N(C)C)C3)[C@H](C)[C@H]12` [meropenem], the MIC is 2 µg/mL (≈ 5.22 µM) against B. ambifaria AU19862; over 32 µg/mL against B. multivorans AU28442; 8 µg/mL (≈ 20.9 µM) in the assay on B. vietnamiensis AU26096; 8 µg/mL (≈ 20.9 µM) against B. gladioli AU29541; 16 µg/mL (≈ 41.7 µM) against B. multivorans AU19729; 4 µg/mL (≈ 10.4 µM) in the assay on B. cepacia AU17630. Further, the MIC against B. cenocepacia AU20998 amounted to 8 µg/mL (≈ 20.9 µM); in the assay with B. multivorans AU11204 it was 2 µg/mL (≈ 5.22 µM); against B. multivorans AU11358 it was 8 µg/mL (≈ 20.9 µM); in the assay with B. vietnamiensis AU3997 it was 1 µg/mL (≈ 2.61 µM); in the assay with B. cenocepacia AU24362 it was 16 µg/mL (≈ 41.7 µM); in the assay with B. diffusa AU19637, 2 µg/mL (≈ 5.22 µM). The MIC is 16 µg/mL (≈ 41.7 µM) with B. contaminans AU15669; 2 µg/mL (≈ 5.22 µM) in the assay with B. cenocepacia AU19276; 4 µg/mL (≈ 10.4 µM) in the assay with B. cenocepacia AU14381; 16 µg/mL (≈ 41.7 µM) in the assay with B. cenocepacia AU8635; 8 µg/mL (≈ 20.9 µM) with B. multivorans AU20929; 8 µg/mL (≈ 20.9 µM) against B. multivorans AU13919. In addition, the MIC is 16 µg/mL (≈ 41.7 µM) in assay [1], 8 µg/mL (≈ 20.9 µM) with B. cepacia AU11420, 16 µg/mL (≈ 41.7 µM) in the assay on B. contaminans AU21811 and 2 µg/mL (≈ 5.22 µM) in the assay on B. cepacia AU0329.
